Where two headings read alike, the source gives them in different places.
How the values were obtained:
HeLa = assay: Proliferation assay (crystal violet), HeLa; type: cell-based; conditions: HeLa cells, 4 days incubation, crystal violet staining, read-out: IC50 inhibition of proliferation, HeLa
Summary of the method: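 Tumor cells seeded at 1000–5000 cells/well in medium with 10% FCS; after 24 h, compounds added at 0.001–10 μM (0.5% DMSO) for 4 days. Cells fixed with glutaraldehyde, stained with crystal violet, dye dissolved in acetic acid and read at 595 nm. IC50 from 4-parameter fit, normalized to zero-point plate and untreated cells.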

CDK2/CycE = molecular target: T1, CDK2/CycE (Homo sapiens, UniProt P24941); assay: CDK2/CycE kinase assay (TR-FRET); type: biochemical; conditions: avg, read-out: CDK2 avg (IC50 [mol/l])
T1 construct: GST; purchased ProQinase GmbH (Freiburg, Germany); host or cells: insect cells (Sf9)
Summary of the method: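 GST-tagged human CDK2 and CycE from Sf9 cells, preincubated 15 min with compound, then 25 min at 22° C. with 10 μM ATP and 0.75 μM biotinylated Rb-derived peptide (final). Phospho-substrate read by TR-FRET (anti-pRB pSer807/pSer811, Eu anti-mouse IgG, streptavidin-XL665), 665/620 nm ratio, normalised to no-inhibitor and no-enzyme controls.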

`Cc1nsc(Nc2cnc3ccccc3n2)c1C(=O)Nc1cccc(C(=O)OC(C)(C)C)c1` [Example 49, tert-Butyl 3-({[3-methyl-5-(quinoxalin-2-ylamino)-1,2-thiazol-4-yl]carbonyl}amino)-benzoate] gave an IC50 (HeLa; Homo sapiens, HeLa, 96 h) of 890 nM and an IC50 (CDK2/CycE) of no less than 20 µM.
In the case of `COC(=O)c1cccc(NC(=O)c2c(C)nsc2Nc2cnc3ccccc3n2)c1` [Example 50, Methyl 3-({[3-methyl-5-(quinoxalin-2-ylamino)-1,2-thiazol-4-yl]carbonyl}amino)-benzoate], the IC50 (HeLa; Homo sapiens, HeLa, 96 h) is reported as 1900 nM and the IC50 (CDK2/CycE) is reported as no less than 20 µM.
`Cc1nsc(Nc2cnc3ccccc3n2)c1C(=O)Nc1cccc(C(=O)O)c1` [Example 51, 3-({[3-Methyl-5-(quinoxalin-2-ylamino)-1,2-thiazol-4-yl]carbonyl}amino)benzoic acid] was tested, and the IC50 (HeLa; Homo sapiens, HeLa, 96 h) was 10000 nM and the IC50 (CDK2/CycE) was no less than 20 µM.
`Cc1nsc(Nc2cnc3ccccc3n2)c1C(=O)Nc1cccc(C(=O)N2CCOCC2)c1` [Example 52, 3-Methyl-N-[3-(morpholin-4-ylcarbonyl)phenyl]-5-(quinoxalin-2-ylamino)-1,2-thiazole-4-carboxamide] showed an IC50 (HeLa; Homo sapiens, HeLa, 96 h) of 10000 nM and an IC50 (CDK2/CycE) of no less than 20 µM.
With `Cc1nsc(Nc2cnc3ccccc3n2)c1C(=O)Nc1cccc(C(=O)NC(C)(C)C)c1` [Example 53, N-[3-(tert-Butylcarbamoyl)-phenyl]-3-methyl-5-(quinoxalin-2-ylamino)-1,2-thiazole-4-carboxamide] the IC50 (HeLa; Homo sapiens, HeLa, 96 h) was 2700 nM and the IC50 (CDK2/CycE) was no less than 20 µM.
With `Cc1nsc(Nc2cnc3ccccc3n2)c1C(=O)Nc1cccc(C(=O)NCC(=O)OC(C)(C)C)c1` [Example 54, tert-Butyl N-[3-({[3-methyl-5-(quinoxalin-2-ylamino)-1,2-thiazol-4-yl]carbonyl}amino)-benzoyl]glycinate] the IC50 (HeLa; Homo sapiens, HeLa, 96 h) was 10000 nM and the IC50 (CDK2/CycE) was no less than 20 µM.
`Cc1nsc(Nc2cnc3ccccc3n2)c1C(=O)Nc1cccc(C(=O)N2CCN(C(=O)OC(C)(C)C)CC2)c1` [Example 55, tert-Butyl 4-[3-({[3-methyl-5-(quinoxalin-2-ylamino)-1,2-thiazol-4-yl]carbonyl}amino)-benzoyl]piperazine-1-carboxylate] gave an IC50 (HeLa; Homo sapiens, HeLa, 96 h) of 10000 nM and an IC50 (CDK2/CycE) of no less than 20 µM.
For `Cc1nsc(Nc2cnc3ccccc3n2)c1C(=O)Nc1cccc(C(=O)N[C@@H](CCC(N)=O)C(=O)OC(C)(C)C)c1` [Example 56, tert-butyl N^2-[3-({[3-methyl-5-(quinoxalin-2-ylamino)-1,2-thiazol-4-yl]carbonyl}amino)-benzoyl]glutaminate], the IC50 (HeLa; Homo sapiens, HeLa, 96 h) was 9800 nM and the IC50 (CDK2/CycE) was no less than 20 µM.
For `Cc1nsc(Nc2cnc3ccccc3n2)c1C(=O)Nc1cccc(C(=O)N[C@H](C(=O)OC(C)(C)C)[C@@H](C)OC(C)(C)C)c1` [Example 57, tert-Butyl O-tert-butyl-N-[3-({[3-methyl-5-(quinoxalin-2-ylamino)-1,2-thiazol-4 yl]carbonyl}amino)-benzoyl]threoninate], the IC50 (HeLa; Homo sapiens, HeLa, 96 h) was 10000 nM and the IC50 (CDK2/CycE) was no less than 20 µM.
`Cc1nsc(Nc2cnc(C(F)(F)F)cn2)c1C(=O)Nc1ccc(F)c(OCC2CCN(CC(F)(F)F)C2)c1` (stereo not drawn) [Example 318, N-(4-fluoro-3-{[1-(2,2,2-trifluoroethyl)pyrrolidin-3-yl]methoxy}phenyl)-3-methyl-5-{[5-(trifluoromethyl)pyrazin-2-yl]amino}-1,2-thiazole-4-carboxamide] was tested, and the IC50 (HeLa) was 410 nM, the IC50 (HeLa; Homo sapiens, HeLa, 96 h) was 220 nM and the IC50 (CDK2/CycE) was greater than 20 µM.
Work on `Cc1nsc(Nc2cnc(C(F)(F)F)cn2)c1C(=O)Nc1ccc(OC[C@H]2CCCN(CCC(F)(F)F)C2)nc1` [Example 378, 3-methyl-5-{[5-(trifluoromethyl)pyrazin-2-yl]amino}-N-(6-{[(3S)-1-(3,3,3-trifluoropropyl)piperidin-3-yl]methoxy}pyridin-3-yl)-1,2-thiazole-4-carboxamide] yielded an IC50 (HeLa; Homo sapiens, HeLa, 96 h) of 290 nM and an IC50 (CDK2/CycE) greater than 20 µM.
Work on `CCCN1CCC(COc2ccc(NC(=O)c3c(C)nsc3Nc3cnc(C(F)(F)F)cn3)cn2)C(F)(F)C1` (stereo not drawn) [Example 394, N-{6-[(3,3-difluoro-1-propylpiperidin-4-yl)methoxy]pyridin-3-yl}-3-methyl-5-{[5-(trifluoromethyl)pyrazin-2-yl]amino}-1,2-thiazole-4-carboxamide] yielded an IC50 (HeLa; Homo sapiens, HeLa, 96 h) of 380 nM and an IC50 (CDK2/CycE) greater than 20 µM.
Compound `Cc1nsc(Nc2cnc(C(F)(F)F)cn2)c1C(=O)Nc1ccc(F)c(OC[C@H]2CCCN(CC(F)F)C2)c1` [Example 400, N-(3-{[(3S)-1-(2,2-difluoroethyl)piperidin-3-yl]methoxy}-4-fluorophenyl)-3-methyl-5-{[5-(trifluoromethyl)pyrazin-2-yl]amino}-1,2-thiazole-4-carboxamide] has an IC50 (HeLa; Homo sapiens, HeLa, 96 h) of 770 nM and an IC50 (CDK2/CycE) greater than 20 µM.
In the case of `Cc1nsc(Nc2cnc(C(F)(F)F)cn2)c1C(=O)Nc1ccc(OCC2CCN(CC(F)F)CC2(F)F)nc1` (stereo not drawn) [Example 401, N-(6-{[1-(2,2-difluoroethyl)-3,3-difluoropiperidin-4-yl]methoxy}pyridin-3-yl)-3-methyl-5-{[5-(trifluoromethyl)pyrazin-2-yl]amino}-1,2-thiazole-4-carboxamide], the IC50 (HeLa; Homo sapiens, HeLa, 96 h) is reported as 430 nM and the IC50 (CDK2/CycE) is reported as greater than 20 µM.
With `Cc1nsc(Nc2cnc(C(F)(F)F)cn2)c1C(=O)Nc1ccc(OCC2CCN(CCC(F)(F)F)CC2(F)F)nc1` (stereo not drawn) [Example 402, N-(6-{[3,3-difluoro-1-(3,3,3-trifluoropropyl)piperidin-4-yl]methoxy}pyridin-3-yl)-3-methyl-5-{[5-(trifluoromethyl)pyrazin-2-yl]amino}-1,2-thiazole-4-carboxamide] the IC50 (HeLa; Homo sapiens, HeLa, 96 h) was 340 nM and the IC50 (CDK2/CycE) was greater than 20 µM.
In the case of `Cc1nsc(Nc2cnc(C(F)(F)F)cn2)c1C(=O)Nc1ccc(F)c(OC[C@@H]2CCN(CC(F)F)C2)c1` [Example 403, N-(3-{[(3R)-1-(2,2-difluoroethyl)pyrrolidin-3-yl]methoxy}-4-fluorophenyl)-3-methyl-5-{[5-(trifluoromethyl)pyrazin-2-yl]amino}-1,2-thiazole-4-carboxamide], the IC50 (HeLa; Homo sapiens, HeLa, 96 h) is reported as 450 nM and the IC50 (CDK2/CycE) is reported as greater than 20 µM.
With `Cc1nsc(Nc2cnc(C(F)(F)F)cn2)c1C(=O)Nc1ccc(OC[C@H]2CCN(CC(F)(F)F)C2)nc1` [Example 404, 3-Methyl-N-(6-{[(3S)-1-(2,2,2-trifluoroethyl)pyrrolidin-3-yl]methoxy}pyridin-3-yl)-5-{[5-(trifluoromethyl)pyrazin-2-yl]amino}-1,2-thiazole-4-carboxamide] the IC50 (HeLa; Homo sapiens, HeLa, 96 h) was 250 nM and the IC50 (CDK2/CycE) was greater than 20 µM.
`CCN1CCC(Oc2ccc(NC(=O)c3c(C)nsc3Nc3cnc(C(F)(F)F)cn3)cn2)C(F)(F)C1` (stereo not drawn) [Example 406, N-{6-[(1-Ethyl-3,3-difluoropiperidin-4-yl)oxy]pyridin-3-yl}-3-methyl-5-{[5-(trifluoromethyl)pyrazin-2-yl]amino}-1,2-thiazole-4-carboxamide] gave an IC50 (HeLa; Homo sapiens, HeLa, 96 h) of 160 nM and an IC50 (CDK2/CycE) greater than 20 µM.
`Cc1nsc(Nc2cnc(C(F)(F)F)cn2)c1C(=O)Nc1ccc(OCCN2CCC(F)(F)CC2)nc1` [Example 407, N-{6-[2-(4,4-Difluoropiperidin-1-yl)ethoxy]pyridin-3-yl}-3-methyl-5-{[5-(trifluoromethyl)pyrazin-2-yl]amino}-1,2-thiazole-4-carboxamide] gave an IC50 (HeLa; Homo sapiens, HeLa, 96 h) of 330 nM and an IC50 (CDK2/CycE) greater than 20 µM.
`CCCN1C[C@H](F)[C@H](Oc2ccc(NC(=O)c3c(C)nsc3Nc3cnc(C(F)(F)F)cn3)cn2)C1` [Example 408, N-(6-{[(3R,4S)-4-Fluoro-1-propylpyrrolidin-3-yl]oxy}pyridin-3-yl)-3-methyl-5-{[5-(trifluoromethyl)pyrazin-2-yl]amino}-1,2-thiazole-4-carboxamide] gave an IC50 (HeLa; Homo sapiens, HeLa, 96 h) of 260 nM and an IC50 (CDK2/CycE) greater than 20 µM.
Compound `Cc1nsc(Nc2cnc(C(F)(F)F)cn2)c1C(=O)Nc1ccc(O[C@@H]2CN(CCC(F)(F)F)C[C@@H]2F)nc1` [Example 409, N-(6-{[(3R,4S)-4-Fluoro-1-(3,3,3-trifluoropropyl)pyrrolidin-3-yl]oxy}pyridin-3-yl)-3-methyl-5-{[5-(trifluoromethyl)pyrazin-2-yl]amino}-1,2-thiazole-4-carboxamide] has an IC50 (HeLa; Homo sapiens, HeLa, 96 h) of 190 nM and an IC50 (CDK2/CycE) greater than 20 µM.
Compound `Cc1nsc(Nc2cnc(C(F)(F)F)cn2)c1C(=O)Nc1ccc(O[C@@H]2CN(CC(F)(F)F)C[C@@H]2F)nc1` [Example 410, N-(6-{[(3R,4S)-4-Fluoro-1-(2,2,2-trifluoroethyl)pyrrolidin-3-yl]oxy}pyridin-3-yl)-3-methyl-5-{[5-(trifluoromethyl)pyrazin-2-yl]amino}-1,2-thiazole-4-carboxamide] has an IC50 (HeLa; Homo sapiens, HeLa, 96 h) of 170 nM and an IC50 (CDK2/CycE) greater than 20 µM.
`Cc1nsc(Nc2cnc(C(F)(F)F)cn2)c1C(=O)Nc1ccc(O[C@@H]2CN(CC(F)F)C[C@@H]2F)nc1` [Example 411, N-(6-{[(3R,4S)-1-(2,2-Difluoroethyl)-4-fluoropyrrolidin-3-yl]oxy}pyridin-3-yl)-3-methyl-5-{[5-(trifluoromethyl)pyrazin-2-yl]amino}-1,2-thiazole-4-carboxamide] was tested, and the IC50 (HeLa; Homo sapiens, HeLa, 96 h) was 170 nM and the IC50 (CDK2/CycE) was greater than 20 µM.
With `Cc1nsc(Nc2cnc(C(F)(F)F)cn2)c1C(=O)Nc1ccc(F)c(O[C@@H]2CCN(CC(F)F)C2)c1` [Example 412, N-(3-{[(3R)-1-(2,2-Difluoroethyl)pyrrolidin-3-yl]oxy}-4-fluorophenyl)-3-methyl-5-{[5-(trifluoromethyl)pyrazin-2-yl]amino}-1,2-thiazole-4-carboxamide] the IC50 (HeLa; Homo sapiens, HeLa, 96 h) was 260 nM and the IC50 (CDK2/CycE) was greater than 20 µM.
Work on `Cc1nsc(Nc2cnc(C(F)(F)F)cn2)c1C(=O)Nc1ccc(F)c(O[C@@H]2CCN(CC(F)(F)F)C2)c1` [Example 413, N-(4-Fluoro-3-{[(3R)-1-(2,2,2-trifluoroethyl)pyrrolidin-3-yl]oxy}phenyl)-3-methyl-5-{[5-(trifluoromethyl)pyrazin-2-yl]amino}-1,2-thiazole-4-carboxamide] yielded an IC50 (HeLa; Homo sapiens, HeLa, 96 h) of 270 nM and an IC50 (CDK2/CycE) greater than 20 µM.

— US20170334899A1, “AMINO-SUBSTITUTED ISOTHIAZOLES” (Bayer Pharma Aktiengesellschaft, priority 2014, published 2017)
